Measured values taken from ChEMBL document CHEMBL1687767, “New antiseptic peptides to protect against endotoxin-mediated shock” (Antimicrob Agents Chemother, 2010).
Values after ≈ are worked out from the molar mass of the structure shown. Active and inactive are the calls of the source. No cut-off for these calls is given here. Residues, ends and D or L forms follow the SMILES beside them.

Key:
Escherichia coli = assay: Antimicrobial activity against Escherichia coli ATCC 25922 by broth microdilution method; type: functional
Homo sapiens [1] = species: Homo sapiens; assay: Antiinflammatory activity in human MNC assessed as inhibition of LPS-induced TNFalpha production at compound: LPS ratio of 100:1 weight percent by ELISA; type: functional
Staphylococcus aureus [2] = assay: Antimicrobial activity against methicillin-resistant Staphylococcus aureus ATCC 43300 by broth microdilution method; type: functional
Pseudomonas aeruginosa [3] = assay: Antimicrobial activity against Pseudomonas aeruginosa ATCC 27853 by broth microdilution method; type: functional
[4] = test system: Bordetella bronchiseptica; assay: Antimicrobial activity against Bordetella bronchiseptica CUN11844-99 by broth microdilution method; type: functional
Acinetobacter baumannii = assay: Antimicrobial activity against […] Acinetobacter baumannii ATCC 19606 by broth microdilution method; type: functional
Pseudomonas aeruginosa [5] = assay: Antimicrobial activity against Pseudomonas aeruginosa CUN 4158-02 by broth microdilution method; type: functional
Staphylococcus aureus [6] = assay: Antimicrobial activity against Staphylococcus aureus ATCC 25923 by broth microdilution method; type: functional
[7] = test system: Stenotrophomonas maltophilia; assay: Antimicrobial activity against […] Stenotrophomonas maltophilia CUN 3998-00 by broth microdilution method; type: functional
Staphylococcus aureus [8] = assay: Antimicrobial activity against methicillin-resistant Staphylococcus aureus CUN 3792-99 by broth microdilution method; type: functional
Homo sapiens [9] = species: Homo sapiens; assay: Antiinflammatory activity in human MNC assessed as inhibition of LPS-induced TNFalpha production at compound: LPS ratio of 10:1 weight percent by ELISA; type: functional
Mus musculus [10] = assay: Antisepsis activity in Salmonella enterica serovar Minnesota R60 LPS-induced C57BL/6 mouse lethal endotoxin shock model assessed as mouse survival at 12.5 ug, ip administered immediately after LPS challenge; type: functional, organism-based
Homo sapiens [11] = species: Homo sapiens; assay: Antiinflammatory activity in human MNC assessed as inhibition of LPS-induced TNFalpha production at compound: LPS ratio of <10:1 weight percent by ELISA; type: functional
Mus musculus [12] = assay: Antisepsis activity in Pseudomonas aeruginosa LPS-induced C57BL/6 mouse lethal endotoxin shock model assessed as mouse survival at 12.5 ug, ip administered immediately after LPS challenge; type: functional, organism-based
[13] = Toxicity in human RBC assessed as hemolysis upto 25 ug/ml; type: cell-based; details: erythrocyte

| Molecule | MIC (Escherichia coli) [µg/mL] | inhibition (Homo sapiens [1]) | MIC (Staphylococcus aureus [2]) [µg/mL] | MIC (Pseudomonas aeruginosa [3]) [µg/mL] | MIC [4] [µg/mL] | MIC (Acinetobacter baumannii) [µg/mL] | MIC (Pseudomonas aeruginosa [5]) [µg/mL] | MIC (Staphylococcus aureus [6]) [µg/mL] | MIC [7] [µg/mL] | MIC (Staphylococcus aureus [8]) [µg/mL] | inhibition (Homo sapiens [9]) | Activity (Mus musculus [10]) | inhibition (Homo sapiens [11]) | Activity (Mus musculus [12]) | Activity [13] |
| --- | --- | --- | --- | --- | --- | --- | --- | --- | --- | --- | --- | --- | --- | --- | --- |
| CC(C)C[C@H](NC(=O)[C@H](CCCNC(=N)N)NC(=O)[C@H](CCCNC(=N)N)NC(=O)[C@H](Cc1ccccc1)NC(=O)[C@H](CCCCN)NC(=O)[C@H](CCCCN)NC(=O)[C@H](CS)NC(=O)CN)C(=O)N[C@@H](CCCCN)C(=O)N[C@@H](Cc1c[nH]c2ccccc12)C(=O)N[C@@H](CCCCN)C(=O)N[C@@H](Cc1ccc(O)cc1)C(=O)N[C@@H](CCCCN)C(=O)NCC(=O)N[C@@H](CCCCN)C(=O)N[C@@H](Cc1ccccc1)C(=O)N[C@@H](Cc1c[nH]c2ccccc12)C(=O)N[C@@H](Cc1ccccc1)C(=O)N[C@@H](Cc1c[nH]c2ccccc12)C(=O)N[C@@H](CS)C(=O)NCC(=O)O (H-GCKKFRRLKWKYKGKFWFWCG-OH) | 64 (≈ 23.2 µM) | Active | 64 (≈ 23.2 µM) | 256 (≈ 93 µM) | 4 (≈ 1.45 µM) | 64 (≈ 23.2 µM) | 256 (≈ 93 µM) | 32 (≈ 11.6 µM) | 512 (≈ 186 µM) | 1020 (≈ 372 µM) |  |  |  |  |  |
| POLYMYXIN B |  |  |  |  |  |  |  |  |  |  | Active | Active | Active | Active |  |
| N=C(N)NCCC[C@H](NC(=O)[C@H](Cc1ccc(O)cc1)NC(=O)[C@H](CCCCN)NC(=O)[C@H](CCCCN)NC(=O)[C@H](CS)NC(=O)CN)C(=O)N[C@@H](CCCNC(=N)N)C(=O)N[C@@H](Cc1ccccc1)C(=O)N[C@@H](CCCNC(=N)N)C(=O)N[C@@H](Cc1c[nH]c2ccccc12)C(=O)N[C@@H](CCCCN)C(=O)N[C@@H](Cc1ccccc1)C(=O)N[C@@H](CCCCN)C(=O)NCC(=O)N[C@@H](CCCCN)C(=O)N[C@@H](Cc1ccccc1)C(=O)N[C@@H](Cc1c[nH]c2ccccc12)C(=O)N[C@@H](Cc1ccccc1)C(=O)N[C@@H](Cc1c[nH]c2ccccc12)C(=O)O (H-GCKKYRRFRWKFKGKFWFW-OH) | 64 (≈ 24.1 µM) | Active | 32 (≈ 12.1 µM) | 64 (≈ 24.1 µM) | 64 (≈ 24.1 µM) | 64 (≈ 24.1 µM) | 128 (≈ 48.2 µM) | 64 (≈ 24.1 µM) | 128 (≈ 48.2 µM) | 64 (≈ 24.1 µM) |  |  |  |  | Non-toxic |
| CC[C@H](C)[C@H](NC(=O)CN)C(=O)NCC(=O)N[C@@H](C)C(=O)N[C@H](C(=O)N[C@@H](CC(C)C)C(=O)N[C@@H](CCCCN)C(=O)N[C@H](C(=O)N[C@@H](CC(C)C)C(=O)N[C@H](C(=O)N[C@H](C(=O)NCC(=O)N[C@@H](CC(C)C)C(=O)N1CCC[C@H]1C(=O)N[C@@H](C)C(=O)N[C@@H](CC(C)C)C(=O)N[C@H](C(=O)N[C@@H](CO)C(=O)N[C@@H](Cc1c[nH]c2ccccc12)C(=O)N[C@H](C(=O)N[C@@H](CCCCN)C(=O)N[C@@H](CCCNC(=N)N)C(=O)N[C@@H](CCCCN)C(=O)N[C@@H](CCCNC(=N)N)C(=O)N[C@@H](CCC(N)=O)C(=O)N[C@@H](CCC(N)=O)C(N)=O)[C@@H](C)CC)[C@@H](C)CC)[C@@H](C)O)[C@@H](C)O)C(C)C)C(C)C [MELITTIN] |  |  |  |  |  |  |  |  |  |  |  |  |  |  | Non-toxic |
| N=C(N)NCCC[C@H](NC(=O)CNC(=O)[C@H](CCCCN)NC(=O)[C@H](Cc1ccccc1)NC(=O)[C@H](CCCCN)NC(=O)[C@H](Cc1c[nH]c2ccccc12)NC(=O)[C@H](CCCNC(=N)N)NC(=O)[C@H](Cc1ccccc1)NC(=O)[C@H](CCCCN)NC(=O)[C@H](CCCCN)NC(=O)[C@H](Cc1ccc(O)cc1)NC(=O)[C@H](CCCNC(=N)N)NC(=O)[C@H](CCCNC(=N)N)NC(=O)CN)C(=O)N[C@@H](Cc1c[nH]c2ccccc12)C(=O)N[C@@H](Cc1ccccc1)C(=O)N[C@@H](Cc1c[nH]c2ccccc12)C(=O)N[C@@H](Cc1ccccc1)C(=O)NCC(=O)O (H-GRRYKKFRWKFKGRWFWFG-OH) | 16 (≈ 6.07 µM) | Active | 8 (≈ 3.03 µM) | 16 (≈ 6.07 µM) | 128 (≈ 48.5 µM) | 16 (≈ 6.07 µM) | 32 (≈ 12.1 µM) | 8 (≈ 3.03 µM) | 32 (≈ 12.1 µM) | 8 (≈ 3.03 µM) |  |  |  | inactive | Non-toxic |
| N=C(N)NCCC[C@H](NC(=O)[C@H](Cc1ccc(O)cc1)NC(=O)[C@H](CCCCN)NC(=O)[C@H](CCCCN)NC(=O)[C@H](CS)NC(=O)CN)C(=O)N[C@@H](CCCNC(=N)N)C(=O)N[C@@H](Cc1ccccc1)C(=O)N[C@@H](CCCNC(=N)N)C(=O)N[C@@H](Cc1c[nH]c2ccccc12)C(=O)N[C@@H](CCCCN)C(=O)N[C@@H](Cc1ccccc1)C(=O)N[C@@H](CCCCN)C(=O)NCC(=O)N[C@@H](CCCCN)C(=O)N[C@@H](Cc1ccccc1)C(=O)N[C@@H](Cc1c[nH]c2ccccc12)C(=O)N[C@@H](Cc1ccccc1)C(=O)N[C@@H](Cc1c[nH]c2ccccc12)C(=O)N[C@@H](CS)C(=O)NCC(=O)O (H-GCKKYRRFRWKFKGKFWFWCG-OH) | 128 (≈ 45.5 µM) | Active | 128 (≈ 45.5 µM) | 128 (≈ 45.5 µM) | 32 (≈ 11.4 µM) | 64 (≈ 22.7 µM) | 256 (≈ 90.9 µM) | 128 (≈ 45.5 µM) | 512 (≈ 182 µM) | 1020 (≈ 364 µM) |  |  |  | Active |  |
| N=C(N)NCCC[C@H](NC(=O)[C@H](Cc1ccccc1)NC(=O)[C@H](CCCCN)NC(=O)[C@H](Cc1c[nH]c2ccccc12)NC(=O)[C@H](CS)NC(=O)[C@H](Cc1ccccc1)NC(=O)[C@H](CCCNC(=N)N)NC(=O)[C@H](Cc1ccc(O)cc1)NC(=O)[C@H](CCCCN)NC(=O)CNC(=O)[C@H](Cc1ccccc1)NC(=O)[C@H](CCCNC(=N)N)NC(=O)[C@H](Cc1c[nH]c2ccccc12)NC(=O)[C@H](CCCCN)NC(=O)CNC(=O)[C@H](Cc1ccccc1)NC(=O)[C@@H](N)CCCCN)C(=O)NCC(=O)N[C@@H](Cc1c[nH]c2ccccc12)C(=O)N[C@@H](CCCCN)C(=O)O (H-KFGKWRFGKYRFCWKFRGWK-OH) |  |  |  |  |  |  |  |  |  |  |  |  |  |  | Non-toxic |
| N=C(N)NCCC[C@H](NC(=O)[C@H](Cc1ccc(O)cc1)NC(=O)[C@H](CCCNC(=N)N)NC(=O)[C@H](Cc1c[nH]c2ccccc12)NC(=O)[C@H](CCCNC(=N)N)NC(=O)[C@H](Cc1ccccc1)NC(=O)[C@H](CCCCN)NC(=O)[C@H](CCCCN)NC(=O)[C@H](Cc1c[nH]c2ccccc12)NC(=O)[C@H](CCCNC(=N)N)NC(=O)[C@H](CCCNC(=N)N)NC(=O)[C@H](CS)NC(=O)CN)C(=O)NCC(=O)N[C@@H](CCCCN)C(=O)N[C@@H](Cc1ccccc1)C(=O)N[C@@H](Cc1c[nH]c2ccccc12)C(=O)N[C@@H](Cc1ccccc1)C(=O)N[C@@H](Cc1c[nH]c2ccccc12)C(=O)N[C@@H](CS)C(=O)NCC(=O)O (H-GCRRWKKFRWRYRGKFWFWCG-OH) | 128 (≈ 44 µM) |  | 32 (≈ 11 µM) | 128 (≈ 44 µM) | 32 (≈ 11 µM) | 64 (≈ 22 µM) | 128 (≈ 44 µM) | 64 (≈ 22 µM) | 64 (≈ 22 µM) | 64 (≈ 22 µM) |  |  |  |  |  |
| N=C(N)NCCC[C@H](NC(=O)CNC(=O)[C@H](CCCCN)NC(=O)[C@H](CCCNC(=N)N)NC(=O)[C@H](Cc1ccccc1)NC(=O)[C@H](CCCCN)NC(=O)[C@H](Cc1c[nH]c2ccccc12)NC(=O)[C@H](CCCNC(=N)N)NC(=O)[C@H](Cc1ccccc1)NC(=O)[C@H](CCCNC(=N)N)NC(=O)[C@H](CCCNC(=N)N)NC(=O)[C@H](Cc1ccc(O)cc1)NC(=O)[C@H](CCCCN)NC(=O)[C@H](CCCCN)NC(=O)CN)C(=O)N[C@@H](Cc1ccccc1)C(=O)N[C@@H](Cc1c[nH]c2ccccc12)C(=O)N[C@@H](Cc1ccccc1)C(=O)N[C@@H](Cc1c[nH]c2ccccc12)C(=O)NCC(=O)O (H-GKKYRRFRWKFRKGRFWFWG-OH) | 16 (≈ 5.73 µM) | Active | 16 (≈ 5.73 µM) | 16 (≈ 5.73 µM) | 4 (≈ 1.43 µM) | 16 (≈ 5.73 µM) | 32 (≈ 11.5 µM) | 16 (≈ 5.73 µM) | 64 (≈ 22.9 µM) | 16 (≈ 5.73 µM) |  |  |  | inactive |  |
| N=C(N)NCCC[C@H](NC(=O)[C@H](Cc1ccc(O)cc1)NC(=O)[C@H](CCCCN)NC(=O)[C@H](CCCCN)NC(=O)CN)C(=O)N[C@@H](CCCNC(=N)N)C(=O)N[C@@H](Cc1ccccc1)C(=O)N[C@@H](Cc1c[nH]c2ccccc12)C(=O)N[C@@H](CCCCN)C(=O)N[C@@H](Cc1ccccc1)C(=O)N[C@@H](CCCCN)C(=O)NCC(=O)N[C@@H](CCCCN)C(=O)N[C@@H](Cc1c[nH]c2ccccc12)C(=O)N[C@@H](Cc1ccccc1)C(=O)N[C@@H](Cc1c[nH]c2ccccc12)C(=O)N[C@@H](Cc1ccccc1)C(=O)N[C@@H](Cc1c[nH]c2ccccc12)C(=O)NCC(=O)O (H-GKKYRRFWKFKGKWFWFWG-OH) | 1020 (≈ 388 µM) |  | 16 (≈ 6.06 µM) | 8 (≈ 3.03 µM) | 8 (≈ 3.03 µM) | 16 (≈ 6.06 µM) | 32 (≈ 12.1 µM) | 1020 (≈ 388 µM) | 64 (≈ 24.3 µM) | 16 (≈ 6.06 µM) |  |  |  |  |  |
